Consider 54 compounds from PubChem BioAssay AID743396 (Broad Institute, 2014).

Activity calls are given as the source filed them.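 How the source made its calls: active means fitted curve reaches a 40% rise in fluorescent cells at or below the top valid dose; inactive means opposite-direction effect, or the rest.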

The nature of the first test: autofluorescent compounds in non-GFP fibroblasts, dose response, artefact control for X-chromosome reactivation project, imaging, mTEFS fibroblasts, cherry-pick (AID 743396).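 Further: raw share of Hoechst-counted cells scored GFP positive without control normalization.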 The conditions noted are these: mTEFS fibroblasts autofluorescence, GFP-channel imaging, 3 days; at 19.5 µM (top of the series).
With `Cc1ccc2[nH]c(=S)n(-c3cccnc3)c(=O)c2c1`, the % fluorescent cells increase was 0.016% (inactive).

As to `COP(=S)(OC)Oc1ccc(Sc2ccc(OP(=S)(OC)OC)cc2)cc1`, the % fluorescent cells increase is 0.075% (inactive).

As for `O=[N+]([O-])c1ccc(O)c([N+](=O)[O-])c1`, the % fluorescent cells increase was 0% (inactive).

Turning to `Cc1cc(/C=C2/C(=O)NC(=O)N(Cc3ccco3)C2=O)c(C)n1-c1ccccc1O`, the % fluorescent cells increase was 0% (inactive).

The same test, now with this note: mTEFS fibroblasts autofluorescence, GFP-channel imaging, 3 days; at 19.5 µM (top of the series); cells pretreated with 5-aza-dC.
As to `O=C(C[C@H]1CC[C@H]2[C@@H](COC[C@@H](O)CN2C(=O)Nc2ccccc2)O1)NCCc1ccncc1`, the % fluorescent cells increase is 0.044% (inactive).

For the compound `CNc1ncnc(Sc2ccc(Cl)cc2)c1[N+](=O)[O-]`, the % fluorescent cells increase is 0% (inactive).

For the compound `CCN(CC(=O)Nc1sc2c(c1C#N)CCCC2)CC(=O)NC1CCS(=O)(=O)C1` (centres undefined), the % fluorescent cells increase is 0.225% (inactive).

Turning to `Oc1ccc(Cl)cc1C=Nc1ccc2c3c(cccc13)CC2`, the % fluorescent cells increase is 0.216% (inactive).

`COCCN(C(=S)Nc1cccc(C)c1)C(C)c1cccnc1` (centres undefined): the % fluorescent cells increase is -0.004% (inactive).

For the compound `CC(C)n1c(NCc2cc(Cl)ccc2O)nc2ccccc21`, the % fluorescent cells increase is -0.007% (inactive).

Regarding `Cc1nn2c(NCCCN(C)C)c3c(nc2c1-c1ccccc1)CCCC3`, the % fluorescent cells increase was -0.007% (inactive).

Consider `CN(C)CC(=O)N1CC2(C1)[C@@H](c1ccccc1)[C@H](CO)N2C(=O)C1CC1`, for which the % fluorescent cells increase was -0.147% (inactive).

As to `Cc1cc(NC(=O)c2c(-c3c(Cl)cccc3Cl)noc2C)n(C)n1`, the % fluorescent cells increase was 0.012% (inactive).

Take `COC(=O)c1cc(NS(=O)(=O)c2ccc(NC(C)=O)cc2)ccc1Cl`: the % fluorescent cells increase was 0% (inactive).

`C[C@@H]1CN([C@@H](C)CO)C(=O)c2ccccc2-c2ccccc2CO[C@@H]1CN(C)C(=O)Nc1ccc2c(c1)OCO2`: the % fluorescent cells increase was -0.044% (inactive).

As for `O=C(CCN1CCCCC1)NCC[C@@H]1CC[C@H](NC(=O)C2CCCCC2)[C@H](CO)O1`, the % fluorescent cells increase was 0.045% (inactive).

Take `Cc1ccccc1NC(=O)c1cn2c(nc3ccccc32)c(C#N)c1C`: the % fluorescent cells increase was 2.44% (inactive).

`CC1CC(C)CN(C(=O)CSCC(=O)Nc2nc(-c3cccs3)cs2)C1` (centres undefined): the % fluorescent cells increase is 0% (inactive).

Take `Cc1ccc(C(=O)c2oc3ccccc3c2NC(=O)c2cc(-c3ccccc3O)n[nH]2)cc1`: the % fluorescent cells increase is 9.74% (inactive).

Turning to `CO[C@@H]1CN(C)C(=O)c2cc(NS(C)(=O)=O)ccc2OC[C@H](C)N(C(=O)C2CCCC2)C[C@H]1C`, the % fluorescent cells increase was 0.308% (inactive).

In the case of `CCOC(=O)c1ccc(NC(=O)C2(N3C(=O)c4ccccc4C3=O)CCCC2)cc1`, the % fluorescent cells increase is 0.495% (inactive).

Regarding `COc1ccc(N(CC(=O)Nc2nccs2)S(=O)(=O)c2c(C)[nH]c(=O)[nH]c2=O)cc1`, the % fluorescent cells increase was 0% (inactive).

For the compound `Cn1c(=O)c(C#N)c(-c2ccc(F)cc2)c2cc(C(=O)c3cc(Cl)cc(Cl)c3O)cnc21`, the % fluorescent cells increase was 0.617% (inactive).

As to `Cc1[nH]c2ccccc2c1/C=N/Nc1nc2ccccc2[nH]1`, the % fluorescent cells increase is 0% (inactive).

`Oc1cc2c(c(Cl)c1O)CCNCC2c1ccccc1` (centres undefined): the % fluorescent cells increase is -0.007% (inactive).

Take `CC(=NNC(=S)Nc1cccc(Cl)c1)c1ccccn1`: the % fluorescent cells increase is 0% (inactive).

With `Cc1ccc(S(=O)(=O)c2ccc([N+](=O)[O-])cn2)cc1`, the % fluorescent cells increase was 0% (inactive).

In the case of `O=C(Nc1ccc(F)cc1)N1CC(=O)N2[C@H](CO)[C@H](c3ccc(C#Cc4ccc(F)cc4)cc3)[C@@H]2C1`, the % fluorescent cells increase was -0.166% (inactive).

For the compound `Cc1cc(-c2nc(C)c(-c3nnc(SCC(=O)Nc4ccc(Cl)cc4)n3C)s2)no1`, the % fluorescent cells increase is 0% (inactive).

For `Cc1c(CN2CCCC(C(=O)c3cccc(OC(C)C)c3)C2)c(=O)n(-c2ccccc2)n1C` (centres undefined), the % fluorescent cells increase was 0.037% (inactive).

For `CC(C)N1C(=O)C(=O)N(CC(=O)N2CCc3ccccc32)C1=O`, the % fluorescent cells increase is 0.029% (inactive).

Take `CN(Cc1cccs1)C(=O)Cc1c[nH]c2ccccc12`: the % fluorescent cells increase is 0.005% (inactive).

As for `COc1ccc(N2C(=O)C3CCCN3C2c2cccc(OC)c2)cc1` (centres undefined), the % fluorescent cells increase is 0.021% (inactive).

As for `Cc1ccc(Cn2cc(/C=N/Nc3ccc([N+](=O)[O-])cn3)c3ccccc32)cc1`, the % fluorescent cells increase was 0.941% (inactive).

As for `CC(=O)Nc1ccc(NS(=O)(=O)c2ccc3c(c2)oc(=O)n3C)cc1`, the % fluorescent cells increase is 0.01% (inactive).

Take `COc1ccc(-c2nnc(NC(=O)c3ccc(F)cc3)o2)cc1`: the % fluorescent cells increase was 0% (inactive).

Take `Cc1ccc(S(=O)(=O)N(C)C[C@H]2OCCCC[C@@H](C)Oc3ccc(NC(=O)Nc4c(C)noc4C)cc3C(=O)N([C@H](C)CO)C[C@@H]2C)cc1`: the % fluorescent cells increase was 0.012% (inactive).

Consider `[N-]=[N+]=CC(=O)C(O)(c1ccccc1)C(Cl)c1ccccc1` (centres undefined), for which the % fluorescent cells increase was -0.007% (inactive).

`COc1cc(CN2CCC(C(=O)NCC(C)(C)CN(C)C)CC2)ccc1OCc1ccccc1`: the % fluorescent cells increase was 0.013% (inactive).

As to `O=C(Nc1ccccc1N1CCCCC1)c1cnccn1`, the % fluorescent cells increase was 0.039% (inactive).

With `NS(=O)(=O)c1cccc(NC(=O)COC(=O)Cc2ccc(S(=O)(=O)N3CCOCC3)s2)c1`, the % fluorescent cells increase was 0% (inactive).

`CC(=O)c1cccc(-c2ccc3c(c2)C(C)(Cc2ccc(S(C)(=O)=O)cc2)C(=O)N3)c1` (centres undefined): the % fluorescent cells increase was 0% (inactive).

Take `NC(=S)Nc1ccc(Cl)cc1Cl`: the % fluorescent cells increase is 0.009% (inactive).

As to `CC=Cc1ccc2n(c1=O)C[C@@H]1[C@@H](CO)[C@H](C(=O)NCCCN(C)C)[C@H]2N1C(=O)c1ccccc1F` (mixture of isomers), the % fluorescent cells increase was 0.025% (inactive).

With `Cc1ncsc1C(=O)Nc1cccc(C(F)(F)F)c1`, the % fluorescent cells increase is 0.019% (inactive).

Take `CC1Oc2ccccc2C=C1/C=N\NC(=O)c1cccnc1` (centres undefined): the % fluorescent cells increase is 0% (inactive).

Regarding `O=C(Nc1ccccc1)N1C[C@@H]2[C@H](c3ccccc31)[C@H](CO)N2C(=O)c1ccccc1F`, the % fluorescent cells increase is 0.041% (inactive).

Consider `COc1ccc(S(=O)(=O)Nc2cccc3c2O[C@H](CN(C)S(=O)(=O)c2cn(C)cn2)[C@H](C)CN([C@H](C)CO)C3=O)cc1`, for which the % fluorescent cells increase was 0.016% (inactive).

On to `NC(=O)c1sc2nc3c(cc2c1N)CCCCCC3`, for which the % fluorescent cells increase is 0.03% (inactive).

As to `O=C(NCCO)/C(=C/c1ccco1)NC(=O)c1ccco1`, the % fluorescent cells increase was 0.007% (inactive).

In the case of `Nc1[nH]c(=O)nc(Nc2ccccc2)c1N=O`, the % fluorescent cells increase was 0% (inactive).

With `Cn1c(=N)n(CC(=O)c2ccccc2)c2ccccc21`, the % fluorescent cells increase is 0% (inactive).

Turning to `Cc1cc(NC(=O)CSc2nnc(-c3c[nH]c4ccccc34)n2-c2ccc(F)cc2)no1`, the % fluorescent cells increase is 0.026% (inactive).

The same test, now with this note: mTEFS fibroblasts autofluorescence, GFP-channel imaging, 3 days; at 21 µM (top of the series); cells pretreated with 5-aza-dC.
With `Cc1ccc(-c2ccccc2[C@@H]2[C@H](C#N)N(S(C)(=O)=O)[C@H]2CO)cc1`, the % fluorescent cells increase is -0.036% (inactive).
